Read-outs that look alike come from different tables or passages of the source.
Columns and labels:
L1210 cells = assay: L1210 murine leukemia cell growth inhibition in vitro; assay type: cell-based; details: Mus musculus, 72 h
Description: Another test protocol uses L1210 cells, a murine leukemia cell line, grown in RPMI 1640 supplemented with 5% fetal bovine serum and gentamicin ([…]). Drug dilutions are prepared in the appropriate solvent and 20 µl of each dilution are added to 24-well Linbro tissue culture plates, followed by the addition of 2.0 ml of cell suspension containing 3 x 10^4 cells per ml. Solvent and medium controls are included in each test. After incubation at 37°C forthree days in 5% C02, the contents of each well are removed and the cells counted in a ZBI Coulter counter. Percent growth are calculated relative to the controls and the levels of drug activity are expressed as ID50 in moles per liter.

HCT-8 cells = assay: in vitro proliferating human colon adenocarcinoma (HCA) cell screen; assay type: cell-based
Description: One test protocol is the in vitro proliferating human colon adenocarcinoma (HCA) cell screen. In this test, HCT-8 cells (HCA cell line received from Yale University) are trypsinized using trypsin-EDTA. A single cell suspension is achieved by passing the cells through a 26 gauge needle with a 20 cc syringe. A cell suspension is prepared using RPMI 1640 + 10% FCS + 50) g/ml gentamicin sulfate with a cell concentration of approximately 30,000 cells/ml. The cell suspension is dispensed in Linbro 24-well plates; 1 ml/well. The plates are incubated for approximately 48 hours at 37°C in a 5% C02 atmosphere. At this time test compounds are added in the appropriate concentration. Five µl of the 200 µg/ml stock solution is added to each well in primary test. Ten µl of the appropirate dilution is added to each well for a titration test. The plates are re-incubated an additional 60 to 65 hours at 37°C in a 5% C02 atmosphere. The cells are lysed using a mix of cationic surfactant, glacial acetic acid, and sodium chloride. Two ml of the lysed cell suspension from each well is added to 8 ml of diluent. The number of nuclei is determined using a Coulter counter (ZBI model), and a percent growth for each drug concentration is calculated. From this, an ID50 molar concentration of a compound (that results in 50% inhibition of growth) is determined.

[1] = tested on: lymphocytic leukemia P388; assay: in vivo lymphocytic leukemia P388 test; design: species or system mice; details: for response vs control in vivo at 50 mg/kg: Dose 50.00 mg/kg intraperitoneally once daily for five days; for P388 in vivo Cures: remark printed beside T/C × 100; for response vs control in vivo at 3.12 mg/kg: Dose 3.12 mg/kg intraperitoneally once daily for five days; for response vs control in vivo at 6.25 mg/kg: Dose 6.25 mg/kg intraperitoneally once daily for five days; for response vs control in vivo at 12.5 mg/kg: Dose 12.50 mg/kg intraperitoneally once daily for five days; for response vs control in vivo at 25 mg/kg: Dose 25.00 mg/kg intraperitoneally once daily for five days
Description: Another test protocol is the in vivo lymphocytic leukemia P388 test. The animals used are either male or female CD2F, mice. There are six or seven animals per test group. The tumor transplant is by intraperitoneal injection of dilute ascitic fluid containing cells of lymphocytic leukemia P388. The test compounds are administered intraperitoneally once daily for five consecutive days at various doses following tumor inoculation. The animals are weighed and survivors are recorded on a regular basis for 30 days. A compound is designated "toxic" if, at a given dose, all animals died prior to four days after the first injection of drug. A ratio of survival time for treated (T)/control (C) animals is calculated. A criterion for efficacy is a ratio T/C times 100 greater than or equal to 125. See Cancer Chemotherapy Reports, Part 3, 3; 1 (1972) for a comprehensive discussion of the protocol.

[2] = tested on: Aerobacter aerogenes 0126; assay: in vitro antibacterial/antifungal (ABF) agar-disk diffusion test; assay type: cell-based; details: Klebsiella aerogenes, read-out: ABF Zone Diameter (cont. in mg/ml) A. Aero-genes; for zone of inhibition at 3000 µg/mL: 3 mg/ml; for zone of inhibition at 500 µg/mL: 0.5 mg/ml
Description: (§1) Still another test protocol is the in vitro antibacterial/antifungal (ABF) test. Compounds are tested for antimicrobial activity in an agar-disk diffusion assay, a standard microbiological technique for testing antibiotics'. After incubation of each culture with a test compound, a zone of inhibition is determined. The zone diameter (mm) of active compounds ranges from a minimum of 13.5 mm to as high as 60 mm, with a greater diameter reflecting higher activity. For convenience, values are reported for two gram-negative bacteria (Aerobacter aerogenes 0126 and Escherichia coli 04863), two gram-positive bacteria (Bacillus subtilis 04555 and Streptococcus faecalis 05045 utilizing AM-09 medium), and one mycelial fungus (Penicillium avellaneum M2988).

Bacillus subtilis 04555 = assay: as above; assay type: cell-based; details: read-out: ABF Zone Diameter (cont. in mg/ml) B. Sub-tilis; for zone of inhibition at 3000 µg/mL: 3 mg/ml; for zone of inhibition at 500 µg/mL: 0.5 mg/ml
Description: as §1

Escherichia coli 04863 = assay: as above; assay type: cell-based; details: read-out: ABF Zone Diameter (cont. in mg/ml) E. Coli; for zone of inhibition at 3000 µg/mL: 3 mg/ml
Description: as §1

[3] = tested on: Penicillium avellaneum M2988; assay: as above; assay type: cell-based; details: Hamigera avellanea, read-out: ABF Zone Diameter (cont. in mg/ml) P. Avell-aneum; for zone of inhibition at 3000 µg/mL: 3 mg/ml
Description: as §1

[4] = tested on: Streptococcus faecalis 05045; assay: as above; assay type: cell-based; details: Enterococcus faecalis, AM-09 medium, read-out: ABF Zone Diameter (cont. in mg/ml) S. Fae-calis; for zone of inhibition at 500 µg/mL: 0.5 mg/ml; for zone of inhibition at 1000 µg/mL: 1 mg/ml
Description: as §1

[5] = Table 1, three days incubation, 50% inhibition of growth, read-out: L1210 in vitro ID50
[6] = Table 1, 60 to 65 hours with compound, 50% inhibition of growth, read-out: HCA—3 in vitro ID50
[7] = Mus musculus, P388, ip, 120 h, read-out: P388 in vivo T/C × 100

In the case of `CCN(CC)CCn1nc2c3c(c(NCCN4CCOC4=O)ccc31)Sc1ccccc1-2` [CH2CH2N(C2H5)2 /], the IC50 (L1210 cells; [5]) is reported as 950 nM, the IC50 (HCT-8 cells; [6]) is reported as 1800 nM and the response vs control in vivo at 47.45 mg/kg ([1]; Mus musculus, P388, ip, 120 h, Dose 47.45 mg/kg intraperitoneally once daily for five days, read-out: P388 in vivo T/C × 100) is reported as 141%. The response vs control in vivo at 50 mg/kg [1, 7] was 140%, the response vs control in vivo at 63.28 mg/kg ([1]; Mus musculus, P388, ip, 120 h, Dose 63.28 mg/kg intraperitoneally once daily for five days, read-out: P388 in vivo T/C × 100) was 165% and the response vs control in vivo at 84.38 mg/kg ([1]; Mus musculus, P388, ip, 120 h, Dose 84.38 mg/kg intraperitoneally once daily for five days, read-out: P388 in vivo T/C × 100) was 193%. The response vs control in vivo at 100 mg/kg ([1]; Mus musculus, P388, ip, 120 h, Dose 100.00 mg/kg intraperitoneally once daily for five days, read-out: P388 in vivo T/C × 100) was 218%, the zone of inhibition at 3000 µg/mL [2] was 0 mm and the zone of inhibition at 3000 µg/mL (Bacillus subtilis 04555) was 13 mm. It also gave a zone of inhibition at 3000 µg/mL (Escherichia coli 04863) of 0 mm, a zone of inhibition at 3000 µg/mL [3] of 0 mm and a zone of inhibition at 500 µg/mL [4] of 14 mm.

For `CCN(CC)CCn1nc2c3c(c(NCCN)ccc31)Sc1ccccc1-2` [CH2CH2N(C2H5)2 / NHCH2CH2NH2, N-[2-[2-(Diethylamino)ethyl]-2H[1]benzothiopyrano[4,3,2-cd]indazol-5-yl]-1,2-ethanediamine], the IC50 (L1210 cells; [5]) was 46 nM, the IC50 (HCT-8 cells; [6]) was 97 nM and the “P388 in vivo Cures” value ([1]; Dose 12.50 mg/kg) was “Cures”. For the same molecule, the “P388 in vivo Cures” value ([1]; Dose 25.00 mg/kg) was “Cures”, the response vs control in vivo at 3.12 mg/kg [1, 7] was 178% and the response vs control in vivo at 6.25 mg/kg [1, 7] was 215%. The response vs control in vivo at 12.5 mg/kg [1, 7] was 297%, the response vs control in vivo at 25 mg/kg [1, 7] was 148% and the zone of inhibition at 500 µg/mL [2] was 19 mm. For the same molecule, the zone of inhibition at 500 µg/mL (Bacillus subtilis 04555) was 20 mm, the zone of inhibition at 3000 µg/mL (Escherichia coli 04863) was 0 mm and the zone of inhibition at 3000 µg/mL [3] was 0 mm. For the same molecule, the zone of inhibition at 1000 µg/mL [4] was 15 mm.

Work on `CCN(CC)CCn1nc2c3c(c(NCCNCCO)ccc31)Sc1c(O)ccc(O)c1-2` [2-[2-(Diethylamino)ethyl]-5-[[2-[(2-hydroxyethyl)amino]ethyl]amino]-2H[1]benzothiopyrano[4,3,2-cdlindazole-7,10-diol] yielded an IC50 (L1210 cells; Table 2, three days incubation, read-out: L1210 in vitro IC50) greater than 1500 nM, an IC50 (HCT-8 cells; Table 2, 60 to 65 hours with compound, read-out: HCA—3 in vitro IC50) greater than 1500 nM and a response vs control in vivo at 6.25 mg/kg [1, 7] of 123%. It also gave a response vs control in vivo at 12.5 mg/kg [1, 7] of 118%, a response vs control in vivo at 25 mg/kg [1, 7] of 121% and a response vs control in vivo at 50 mg/kg [1, 7] of 138%. The zone of inhibition at 3000 µg/mL [2] was 14 mm, the zone of inhibition at 3000 µg/mL (Bacillus subtilis 04555) was 0 mm and the zone of inhibition at 3000 µg/mL (Escherichia coli 04863) was 0 mm. The zone of inhibition at 3000 µg/mL [3] was 0 mm and the zone of inhibition at 500 µg/mL [4] was 15 mm.

`CCN(CC)CCn1nc2c3c(c(NC(C)=O)ccc31)Sc1ccccc1-2` [CH2CH2N(C2H5)2 / NHCOCH3, N-[2-[2-(Diethylamino)ethyl]-2H-[1]benzothiopyrano[4,3,2-cd]indazol-5-yl]acetamide] was tested, and the IC50 (L1210 cells; [5]) was 240 nM, the IC50 (HCT-8 cells; [6]) was 600 nM and the response vs control in vivo at 12.5 mg/kg [1, 7] was 170%. For the same molecule, the zone of inhibition at 3000 µg/mL [2] was 16 mm, the zone of inhibition at 500 µg/mL (Bacillus subtilis 04555) was 16 mm and the zone of inhibition at 3000 µg/mL (Escherichia coli 04863) was 16 mm. The zone of inhibition at 3000 µg/mL [3] was 0 mm and the zone of inhibition at 3000 µg/mL ([4]; 3 mg/ml) was 15 mm.

With `Nc1ccc2c3c(nn2CCNCCO)-c2ccccc2Sc13` [CH2CH2NHCH2CH2OH / NH2] the IC50 (L1210 cells; [5]) was 170 nM, the IC50 (HCT-8 cells; [6]) was 580 nM and the response vs control in vivo at 3.12 mg/kg [1, 7] was 135%. The response vs control in vivo at 6.25 mg/kg [1, 7] was 143%, the response vs control in vivo at 12.5 mg/kg [1, 7] was 159% and the response vs control in vivo at 25 mg/kg [1, 7] was 194%. The zone of inhibition at 500 µg/mL [2] was 16 mm, the zone of inhibition at 500 µg/mL (Bacillus subtilis 04555) was 18 mm and the zone of inhibition at 500 µg/mL (Escherichia coli 04863; 0.5 mg/ml) was 17 mm. For the same molecule, the zone of inhibition at 3000 µg/mL [3] was 15 mm and the zone of inhibition at 1000 µg/mL [4] was 20 mm.

`CCN(CC)CCn1nc2c3c(c(N)ccc31)Sc1ccccc1-2` [CH2CH2N(C2H5)2 / NH2, 5-Amino-N,N-diethyl-2H[1]benzothiopyrano[4,3,2-cd]indazole-2-ethanamine] gave an IC50 (L1210 cells; [5]) of 130 nM, an IC50 (HCT-8 cells; [6]) of 1100 nM and a response vs control in vivo at 12.5 mg/kg [1, 7] of 144%. The response vs control in vivo at 25 mg/kg [1, 7] was 162%, the zone of inhibition at 3000 µg/mL [2] was 0 mm and the zone of inhibition at 3000 µg/mL (Bacillus subtilis 04555) was 0 mm. It also gave a zone of inhibition at 3000 µg/mL (Escherichia coli 04863) of 0 mm, a zone of inhibition at 1000 µg/mL ([3]; 1 mg/ml) of 14 mm and a zone of inhibition at 1000 µg/mL [4] of 14 mm.
